These results are taken from patent US11407768B2, “AMPK activators” (Kallyope, Inc., priority 2020, dated 2022).

Data set [1] is described as follows: Pharmacokinetics (oral bioavailability) in C57BL/6 mice. To be noted: mouse, in vivo. On the procedure: Selected compounds were tested for pharmacokinetics in C57BL/6 mice. Compounds 1, 4, 31, 32, 40, 55, 57 and 60 were dosed IV at 1 mg/kg as a formulation of 0.2 mg/mL in 5% DMSO+30% PEG400+65% water and were dosed PO at 30 mg/kg as a formulation of 3 mg/mL in 0.25% MC+5% Tween 80+0.02% SDS. Compound 2 was dosed IV at 1 mg/kg as a formulation of 0.2 mg/mL in 5% ethanol +95% saline and was dosed PO at 30 mg/kg as a formulation of 3 mg/mL in 0.25% MC+5% Tween 80+0.02% SDS.

Data set [2] concerns the target Recombinant AMPK α1/β1/γ1 complex (Homo sapiens (Human), UniProt Q13131+Q9Y478). The data set is described as follows: In vitro pAMPK1 kinase activation assay (ADP-Glo, SAMS peptide). The data set is classed as biochemical. To be noted: AMPK α1/β1/γ1 pre-activated with CAMKK2; 12-point curve; 15 min compound incubation. On the procedure: Compound effect on AMPK enzyme activation was determined in a cell-free format with a 12-point concentration curve. The ADP-Glo detection system was used to determine phosphorylation of a SAMS peptide substrate. Recombinant AMPK α1/β1/γ1 complex was pre-activated by phosphorylation with CAMKK2 followed by incubated with compound for 15 minutes prior to the SAMS phosphorylation reaction. Activity curves and EC50 values were fitted by interpolation to an ATP:ADP standard curve as indicated by the ADP-Glo manufacturer using Prism software.

For data set [3], the system named is Chemotherapy-induced Intestinal Injury Model. Briefly: Diarrhea in mouse chemotherapy-induced (5FU) intestinal injury model. To be noted: 30 mpk BID oral, 5FU 400 mg/kg IP; for Diarrhea Score Day 5 / Diarrhea Score Day 6: score 0-3. The class given is in vivo, BALB/c mice. On the procedure: Compounds were formulated in vehicle (0.25% methyl cellulose, 5% Tween 80, 0.02% sodium dodecyl sulfate (SDS) in Hanks' Buffered Salt Solution with Ca' and Mg'). On day 1, either saline or a 400 mg/kg dose of 5-fluorouracil (5FU) in saline was administered by intraperitoneal injection to BALB/c mice. Starting on day 2, vehicle or compound was administered twice a day by oral gavage. From days 5 to 6 post-5FU, the animals were scored for diarrhea severity once a day. The diarrhea was scored 0-3 as follows: 0—normal consistency (black and solid), 1—soft (black and a bit lighter/yellow), 2—loosely shaped stool (yellowish and somewhat watery), 3—extreme diarrhea (very watery).

The nature of another data set: in vitro. Conditions: human. On the procedure: Caco-2 cells purchased from ATCC were seeded onto […] (PET) in 96-well BD Insert plates at 1×10^5 cells/cm^2, and refreshed medium every 4-5 days until to the 21st to 28th day for confluent cell monolayer formation. The transport buffer in the study was HBSS with 10 mM HEPES at pH 7.40±0.05. Test compounds were tested at 2 μM bi-directionally in duplicate. Digoxin was tested at 10 μM bi-directionally in duplicate, while nadolol and metoprolol were tested at 2 μM in A to B direction in duplicate. Final DMSO concentration was adjusted to less than 1%.
The plate was incubated for 2 hours in CO2 incubator at 37±1° C., with 5% CO2 at saturated humidity without shaking. All samples were mixed with acetonitrile containing internal standard and were centrifuged at 4000 rpm for 10 min. Subsequently, 100 μL supernatant solution was diluted with 100 μL distilled water for LC/MS/MS analysis. Concentrations of test and control compounds in starting solution, donor solution, and receiver solution were quantified by LC/MS/MS, using peak area ratio of analyte/internal standard.

[4] abbreviates: Caco-2, pH 7.4, Mean Recovery A to B.

Chain of Recombinant AMPK α1/β1/γ1 complex (Q13131 whole entry): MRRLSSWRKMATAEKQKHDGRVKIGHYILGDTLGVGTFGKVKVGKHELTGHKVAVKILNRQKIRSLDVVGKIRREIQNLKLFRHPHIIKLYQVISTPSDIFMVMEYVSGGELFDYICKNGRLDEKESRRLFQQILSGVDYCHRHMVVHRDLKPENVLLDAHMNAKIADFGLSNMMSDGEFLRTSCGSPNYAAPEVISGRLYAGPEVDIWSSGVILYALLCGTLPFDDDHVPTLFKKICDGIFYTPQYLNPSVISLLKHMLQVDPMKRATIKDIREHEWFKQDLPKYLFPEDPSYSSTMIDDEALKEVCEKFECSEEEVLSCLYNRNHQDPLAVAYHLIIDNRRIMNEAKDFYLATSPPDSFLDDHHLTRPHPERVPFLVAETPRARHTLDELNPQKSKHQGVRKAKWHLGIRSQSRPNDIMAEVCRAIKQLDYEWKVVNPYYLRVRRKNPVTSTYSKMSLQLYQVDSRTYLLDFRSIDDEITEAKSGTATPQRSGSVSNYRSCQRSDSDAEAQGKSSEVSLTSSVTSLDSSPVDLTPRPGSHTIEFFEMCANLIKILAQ
Chain of Recombinant AMPK α1/β1/γ1 complex (Q9Y478 whole entry): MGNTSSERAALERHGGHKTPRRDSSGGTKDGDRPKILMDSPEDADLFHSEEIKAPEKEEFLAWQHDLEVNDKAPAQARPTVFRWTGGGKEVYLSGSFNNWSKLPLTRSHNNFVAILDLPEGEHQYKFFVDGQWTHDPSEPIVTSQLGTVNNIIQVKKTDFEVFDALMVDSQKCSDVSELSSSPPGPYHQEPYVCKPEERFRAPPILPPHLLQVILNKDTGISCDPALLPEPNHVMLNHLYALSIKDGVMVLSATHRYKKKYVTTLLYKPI
Chain of Recombinant AMPK α1/β1/γ1 complex (P54619 whole entry partner): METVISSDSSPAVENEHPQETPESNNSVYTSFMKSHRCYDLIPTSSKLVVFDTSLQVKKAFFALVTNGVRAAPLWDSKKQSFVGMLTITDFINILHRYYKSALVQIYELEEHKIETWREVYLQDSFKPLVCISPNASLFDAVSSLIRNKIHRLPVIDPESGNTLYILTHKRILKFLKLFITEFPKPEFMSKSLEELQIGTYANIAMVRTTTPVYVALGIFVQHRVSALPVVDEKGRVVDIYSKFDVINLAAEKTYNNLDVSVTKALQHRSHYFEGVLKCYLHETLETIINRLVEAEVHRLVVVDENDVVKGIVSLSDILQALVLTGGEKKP

In turn, `OCC1CCN(Cc2ccc(-c3ccc(-c4cc5nc(O[C@@H]6CO[C@H]7[C@@H]6OC[C@H]7O)[nH]c5cc4Cl)cc3)cc2)CC1` [Compound 55, (3R,3aR,6R,6aR)-6-((6-chloro-5-(4′((4-(hydroxymethyl)piperidin-1-yl)methyl)-[1,1′-biphenyl]-4-yl)-1H-benzo[d]imidazol-2-yl)oxy)hexahydrofuro[3,2-b]furan-3-ol] displayed a bioavailability in data set [1] (IV 1 mg/kg, PO 30 mg/kg) of under 15%. Further, the Vd in data set [1] (following IV administration, 1 mg/kg, read-out: volume of distribution) is under 5 L/kg. In addition, the EC50 in data set [2] was determined as 2.22 nM.
In the case of `OCCN1CCN(Cc2ccc(-c3ccc(-c4cc5nc(O[C@@H]6CO[C@H]7[C@@H]6OC[C@H]7O)[nH]c5cc4Cl)cc3)cc2)CC1` [Compound 56], the EC50 in data set [2] is 0.93 nM. Besides, in data set [3], the “Diarrhea Score Day 5, % Change vs. Vehicle” value was −71%; the “Diarrhea Score Day 6, % Change vs. Vehicle” value was −77%; the “Diarrhea Score Day 5” value stood at 0.38; the “Diarrhea Score Day 6” value stood at 0.25.
The corresponding values for `OCCOCCNCc1ccc(-c2ccc(-c3cc4nc(O[C@@H]5CO[C@H]6[C@@H]5OC[C@H]6O)[nH]c4cc3Cl)cc2)cc1` [Compound 58, (3R,3aR,6R,6aR)-6-((6-chloro-5-(4′-(((2-(2-hydroxyethoxy)ethyl)amino)methyl)-[1,1′-biphenyl]-4-yl)-1H-benzo[d]imidazol-2-yl)oxy)hexahydrofuro[3,2-b]furan-3-ol] are 0.93 nM, −81%, −66%, 0.25 and 0.38.
Turning to `O[C@@H]1CO[C@H]2[C@@H]1OC[C@H]2Oc1nc2cc(-c3ccc(-c4ccc(CN5C[C@@H](O)[C@@H](O)C5)cc4)cc3)c(Cl)cc2[nH]1` [Compound 61, (3S,4R)-1-((4′-(6-chloro-2-(((3R,3aR,6R,6aR)-6-hydroxyhexahydrofuro[3,2-b]furan-3-yl)oxy)-1H-benzo[d]imidazol-5-yl)-[1,1′-biphenyl]-4-yl)methyl)pyrrolidine-3,4-diol], in data set [2], the EC50 is 1.36 nM.
On the same count and under the same terms, as for `CN(CCOCCO)Cc1ccc(-c2ccc(-c3cc4nc(O[C@@H]5CO[C@H]6[C@@H]5OC[C@H]6O)[nH]c4cc3Cl)cc2)cc1` [Compound 62, (3R,3aR,6R,6aR)-6-((6-chloro-5-(4′-(((2-(2-hydroxyethoxy)ethyl)(methyl)amino)methyl)-[1,1′-biphenyl]-4-yl)-1H-benzoldlimidazol-2-yl)oxy)hexahydrofuro[3,2-b]furan-3-ol], the figure is 1.3 nM; as for `OCC1CN(Cc2ccc(-c3ccc(-c4cc5nc(O[C@@H]6CO[C@H]7[C@@H]6OC[C@H]7O)[nH]c5cc4Cl)cc3)cc2)C1` [Compound 63, (3R,3aR,6R,6aR)-6-((6-chloro-5-(4′((3-(hydroxymethyl)azetidin-1-yl)methyl)-[1,1′-biphenyl]-4-yl)-1H-benzo[d]imidazol-2-yl)oxy)hexahydrofuro[3,2-b]furan-3-ol], 1.09 nM.
Same read-out and setting: as for `O[C@@H]1CO[C@H]2[C@@H]1OC[C@H]2Oc1nc2cc(-c3ccc(-c4ccc(CN5C[C@H](O)[C@@H](O)C5)cc4)cc3)c(Cl)cc2[nH]1` [Compound 64], the figure is 1.4 nM; as for `OC[C@@H](O)[C@@H](O)[C@H](O)[C@@H](O)CNCc1ccc(-c2ccc(-c3cc4nc(O[C@@H]5CO[C@H]6[C@@H]5OC[C@H]6O)[nH]c4cc3Cl)cc2)cc1` [Compound 65, (2R,3R,4R,5S)-6-(((4′-(6-chloro-2-(((3R,3aR,6R,6aR)-6-hydroxyhexahydrofuro[3,2-b]furan-3-yl)oxy)-1H-benzo [d]imidazol-5-yl)-[1,1′-biphenyl]-4-yl)methyl)amino)hexane-1,2,3,4,5-pentaol], 0.77 nM.
The same measure, in the same setting: as for `OCC1(CO)CN(Cc2ccc(-c3ccc(-c4cc5nc(O[C@@H]6CO[C@H]7[C@@H]6OC[C@H]7O)[nH]c5cc4Cl)cc3)cc2)C1` [Compound 66, (1-((4′-(6-chloro-2-(((3R,3aR,6R,6aR)-6-hydroxyhexahydrofuro[3,2-b]furan-3-yl)oxy)-1H-benzo[d]imidazol-5-yl)-[1,1′-biphenyl]-4-yl)methyl)azetidine-3,3-diyl)dimethanol], the figure is 0.8 nM.
Take `NCC1CN(Cc2ccc(-c3ccc(-c4cc5nc(O[C@@H]6CO[C@H]7[C@@H]6OC[C@H]7O)[nH]c5cc4Cl)cc3)cc2)C1` [Compound 67, (3R,3aR,6R,6aR)-6-((5-(4′-((3-(aminomethyl)azetidin-1-yl)methyl)-[1,1′-biphenyl]-4-yl)-6-chloro-1H-benzo[d]imidazol-2-yl)oxy)hexahydrofuro[3,2-b]furan-3-ol]: the EC50 in data set [2] was 0.93 nM.
As to `O=P(O)(O)c1ccc(-c2ccc(-c3nc4nc(O[C@@H]5CO[C@@H](CO)[C@@H]5O)[nH]c4cc3Cl)cc2)cc1` [Compound 68, (4′-(6-chloro-2-(((3R,4S,5S)-4-hydroxy-5-(hydroxymethyl)tetrahydrofuran-3-yl)oxy)-1H-imidazo[4,5-b]pyridin-5-yl)-[1,1′-biphenyl]-4-yl)phosphonic acid], in data set [2], the EC50 is over 10000 nM.
Still for that read-out and setting: the result for `O=S(=O)(O)c1ccc(-c2ccc(-c3nc4nc(O[C@@H]5CO[C@H]6[C@@H]5OC[C@H]6O)[nH]c4cc3Cl)cc2)cc1` [Compound 69, 4′-(6-chloro-2-(((3R,3aR,6R,6aR)-6-hydroxyhexahydrofuro[3,2-b]furan-3-yl)oxy)-1H-imidazo[4,5-b]pyridin-5-yl)-[1,1′-biphenyl]-4-sulfonic acid] reads 1.84 nM; that for `O=S(=O)(NC[C@H](O)[C@@H](O)[C@H](O)[C@H](O)CO)c1ccc(-c2ccc(-c3cc4nc(O[C@@H]5CO[C@H]6[C@@H]5OC[C@H]6O)[nH]c4cc3Cl)cc2)cc1` [Compound 71], 0.63 nM.
On the same count and under the same terms, the result for `CN(CCOCCO)S(=O)(=O)c1ccc(-c2ccc(-c3cc4nc(O[C@@H]5CO[C@H]6[C@@H]5OC[C@H]6O)[nH]c4cc3Cl)cc2)cc1` [Compound 72] reads 1.38 nM; that for `CC(NC[C@H](O)[C@@H](O)[C@H](O)[C@H](O)CO)c1ccc(-c2ccc(-c3nc4nc(O[C@@H]5CO[C@H]6[C@@H]5OC[C@H]6O)[nH]c4cc3Cl)cc2)cc1` (stereo partly shown) [Compound 73], 1.33 nM.
For the molecule `OCCOCCNCc1ccc(-c2ccc(-c3cc4nc(O[C@@H]5CO[C@H]6[C@@H]5OC[C@H]6O)[nH]c4cc3Cl)cc2)c(O)c1` [Compound 74], the EC50 in data set [2] came out at 0.15 nM.
Take `O=C(NCCOCCO)c1ccc(-c2ccc(-c3cc4nc(O[C@@H]5CO[C@H]6[C@@H]5OC[C@H]6O)[nH]c4cc3Cl)cc2)c(O)c1` [Compound 75, 4′-(6-chloro-2-(((3R,3aR,6R,6aR)-6-hydroxyhexahydrofuro[3,2-b]furan-3-yl)oxy)-1H-benzo[d]imidazol-5-yl)-2-hydroxy-N-(2-(2-hydroxyethoxy)ethyl)-[1,1′-biphenyl]-4-carboxamide]: the EC50 in data set [2] amounted to 0.37 nM.
On to `C[C@H]1O[C@@H](O[C@H]2[C@@H](O)C[C@H](O[C@H]3[C@@H](O)C[C@H](O[C@H]4CC[C@@]5(C)[C@H](CC[C@@H]6[C@@H]5C[C@@H](O)[C@]5(C)[C@@H](C7=CC(=O)OC7)CC[C@]65O)C4)O[C@@H]3C)O[C@@H]2C)C[C@H](O)[C@@H]1O` [Digoxin, reference compound], for which, in “in vitro” (Caco-2, pH 7.4), the Papp A→B at 2 h, 2 μM is under 0.03 ×10⁻⁶ cm/s and the Papp B→A at 2 h, 2 μM amounted to 12.7 ×10⁻⁶ cm/s. Further, the efflux ratio at 2 h, 2 μM in “in vitro” (Caco-2, pH 7.4, Efflux Ratio) is over 438. This molecule also came in with a recovery at 2 h, 2 μM in the data set “in vitro” (setting [4]) of under 90.8%. In addition, in “in vitro” (Caco-2, pH 7.4, Mean Recovery B to A), the recovery at 2 h, 2 μM amounted to 92.2%.
`COCCc1ccc(OCC(O)CNC(C)C)cc1` (stereo not shown) [Metoprolol, metoprolol, reference compound] yielded a Papp A→B at 2 h, 2 μM in the data set “in vitro” (Caco-2, pH 7.4) of 16.4 ×10⁻⁶ cm/s. In the data set “in vitro” (setting [4]), this molecule showed a recovery at 2 h, 2 μM of 90%.

The term bioavailability denotes the share of a dose that reaches the circulation, judged against a reference dose that is usually intravenous. Read a high bioavailability as good availability. As usually defined, the EC50 is the concentration at which the effect is half-maximal. The Papp A→B is the apparent permeability from the apical to the basolateral side of a cell layer. The low end stands for poor permeation, the high end for ready permeation. A word on the Papp B→A: it is the apparent permeability from the basolateral to the apical side of a cell layer. What is called efflux ratio is the permeability from basolateral to apical divided by that in the opposite direction, in the common usage.
